Source: patent US20060030537A1, “Ceramide kinase and uses thereof” (priority 2004, published 2006)

Legend:
[1] = tested on: ceramide kinase; experiment: Ceramide kinase assay on lysates of treated or transfected A549 cells; type: cell-based, human; conditions: 26 hours after transfection
Experimental: FIGS. 5A-5C. IL-1β and calcium ionophore increase ceramide-1-phosphate production and ceramide kinase activity. FIGS. 5A and 5B. The effect of IL-1 and A23187 on C-1-P levels and AA liberation. A549 cells (2×10^5) were labeled overnight with 10 μCi/mL [^3H]-arachidonic acid (10 nM), washed, and then treated with either 2.5 ng/mL of IL-1β (FIG. 5A) or 1 μg/mL of A23187 (FIG. 5B) for the indicated times. Two hours prior to Bligh-Dyer extraction, cells were chased with 20 μM of D-e-C6 NBD-ceramide (Matreya). At the appropriate times, media was taken for AA analysis, and lipids from the cells were extracted by the Bligh-Dyer method followed by analysis of NBD-C-1-P formation. Data are presented as % control of C-1-P levels (J) and AA release (B). Data are representative of three separate determinations on 2 separate occasions. FIG. 5C. IL-1β and calcium ionophore increase ceramide kinase activity. A549 cells (5×10^5) were treated with either 2.5 ng/mL of IL-1β for 3.5 hours or 1 μg/mL of A23187 for 5 minutes. Cells were then washed, lysed in assay buffer, and assayed for ceramide kinase activity. Data is presented as % control of ceramide kinase activity (Arbitrary densitometry units of fluorescent NBD-C-1-P produced/min/mg of total cellular protein). Data are representative of three separate determinations on 2 separate occasions.
FIGS. 6A-6B. Ceramide kinase RNAi downregulates endogenous ceramide kinase activity and mRNA levels. FIG. 6A. The effect of ceramide kinase RNAi on endogenous ceramide kinase activity. […] Following the same procedure as outlined in FIG. 6A, total RNA was extracted and analyzed via logarithmic reverse-transcriptase polymerase chain reaction for human ceramide kinase and 18s ribosomal RNA. […]
Ceramide Kinase Assay: Ceramide kinase activity was measured as described previously with slight modifications (Bajjalieh, S., and Batchelor, R. (2001) Methods Enzymol. 311, 207-215). […] Following Bligh-Dyer extraction, lipids were separated by thin layer chromatography, and NBD-C-1-P was visualized/quantified by fluorescent phosphorimaging.

[2] = tested on: A549 cells; experiment: Quantification of prostaglandin E2 synthesis in A549 cells (EIA); type: cell-based; conditions: compared with inhibition of AA release
Experimental: Cell Culture: A549 lung adenocarcinoma cells (epithelial-derived) were grown in low glucose DMEM (Invitrogen) supplemented with L-glutamine, 10% (v/v) fetal bovine serum (Invitrogen), 200 U/ml of penicillin G sodium, and 200 μg/ml of streptomycin sulfate. Cells were maintained under 80% confluency and standard incubator conditions (humidified atmosphere, 95% air, 5% CO2, 370 C). For treatment, cells were incubated for 2 hours in low glucose DMEM (Invitrogen) supplemented with L-glutamine, 2% (v/v) fetal bovine serum (Invitrogen), 200 U/ml of penicillin G sodium, and 200 μg/ml of streptomycin sulfate prior to the addition of agonist.
Quantification of prostaglandin E2 and thromboxane B2 synthesis: For measurement of PGE2 and TXB2 levels, aliquots of media were taken at indicated time points and assayed according to manufacturer's instructions using the prostaglandin E2 and thromboxane B2 monoclonal EIA Kit from Cayman Chemical. Briefly, media containing PGE2 or TXB2 competes with PGE2 or TXB2 acetylcholinesterase conjugate for a limited amount of monoclonal antibody. The antibody-PGE2 or -TXB2 conjugate binds to a goat-anti-mouse antibody previously attached to the 96-well plate. The plate is washed to remove unbound reagents and then the substrate for acetylcholinesterase is provided. […] Results were controlled for equivalent number of cells quantified by MTT assay. […]

[3] = tested on: sphingosine kinase-1; experiment: Immunoreactive levels of sphingosine kinase-1 after ceramide kinase RNAi; type: cell-based; conditions: cells transfected with RNAi targeted to ceramide kinase

## ceramide kinase RNAi: 21-nucleotide duplex, human ceramide kinase RNAi starting 142 nucleotides from start codon (SEQ ID NO: 3 and 4) (chain 1 UGCCUGCUCUGUGCCUGUATT; chain 2 UACAGGCACAGAGCAGGCATT; chemistry not given here)
[1]
  decrease of endogenous ceramide kinase activity: 67%
[2]
  inhibition of PGE2 synthesis in response to IL-1β and A23187: to the same extent
[3]
  immunoreactive levels of sphingosine kinase-1: no decrease
